Laboratory results published in PMC6134108, “Nystatin-like Pseudonocardia polyene B1, a novel disaccharide-containing antifungal heptaene antibiotic” (Scientific Reports, 2018).
≈ marks a conversion by molar mass, not a printed value. Like-named read-outs stand apart in the source and are kept apart here.

Tests used:
C. albicans SL38 = assay: MIC assay (CLSI M27-A3 microbroth); type: cell-based; details: Candida albicans, SL38, read-out: Antifungal activity (MIC)
Procedure: (§1) For the minimum inhibitory concentration (MIC) assay, strains for testing were grown on YPD agar for 24 hours, and subcultured to YPD broth medium. Whole strains were incubated for 18 hours at 35 °C by shaking incubator. Grown organisms were diluted with fresh RPMI 1640 medium to appropriate concentration, 5 × 10^4 CFU/ml. Cultures were inoculated to 96-well plates containing antifungal medium. All compounds were dissolved using Dimethyl Sulfoxide (DMSO) and diluted broth media. Fungal diluted solution and antifungal medium were mixed at 1:1 ratio so total 200 ul mixed medium was made. Whole experiment plates were incubated for 24 hours at 37 °C. […] The MICs were calculated in duplicate using the Clinical and Laboratory Standards Institute M27-A3 microbroth methodology. Hemolysis experiments and the 3-(4,5-dimethylthiazol-2-yl)-5-(3-carboxymethoxyphenyl)-2-(4-sulfophenyl)-2H-tetrazolium (MTS) cell proliferation colorimetric assay were performed following known procedures[12],[27],[29].

C. albicans SL28 = assay: MIC assay (CLSI M27-A3 microbroth); type: cell-based; details: Candida albicans, SL28, read-out: Antifungal activity (MIC)
Procedure: as §1

[1] = test system: Candida albicans KCTC7965; assay: MIC assay (CLSI M27-A3 microbroth); type: cell-based; details: Candida albicans, KCTC7965, read-out: Antifungal activity (MIC)
Procedure: as §1

C. albicans SC5314 = assay: MIC assay (CLSI M27-A3 microbroth); type: cell-based; details: Candida albicans, SC5314, read-out: Antifungal activity (MIC)
Procedure: as §1

[2] = test system: Cryptococcus humicola ATCC9949; assay: MIC assay (CLSI M27-A3 microbroth); type: cell-based; details: Vanrija humicola, ATCC9949, read-out: Antifungal activity (MIC)
Procedure: as §1

[3] = test system: Saccharomyces cerevisiae ATCC9035; assay: MIC assay (CLSI M27-A3 microbroth); type: cell-based; details: Saccharomyces cerevisiae, ATCC9035, read-out: Antifungal activity (MIC)
Procedure: as §1

[4] = Microsomal (metabolic) stability; type: in vitro ADME; details: human liver microsomes 1.0 mg/ml
Procedure: A metabolic stability experiment was conducted to calculate the rate of disappearance of polyene macrolides following in vitro incubation with human microsomes. Working solutions of polyene macrolides were prepared from a 10 mM stock solution in dimethyl sulfoxide (DMSO) diluted to a final concentration of 1 µM in 0.1 M potassium phosphate buffer (pH 7.4). Each incubation mixture included 1 mg/mL human microsomal protein (BD Gentest^TM, Franklin Lakes, NJ, USA) and 1 mM NADPH. The reactions were terminated at 0, 15, 45, and 80 min. The reaction mixtures were vigorously vortexed and then analyzed using the API2000 LC-MS/MS) system (Applied Biosystems, USA) using an Xterra MS C18 (3.5-µm, 2.1 × 50 mm, Waters).

in vivo = details: male, SD, rat, plasma, iv, 1 mg/kg
[5] = rats, oral administration
[6] = 7-day repeated intravenous dose toxicity; type: in vivo, mice; details: both sexes, ICR, mouse, in vivo; mice, 7-day repeated intravenous doses; read-out: MTD, maximal tolerated dose
Procedure: All in vivo mouse toxicity studies were conducted according to Testing Guidelines for Safety Evaluation of Drugs[32] and the Organisation for Economic Co-operation and Development (OECD) Guideline[33]. Male and female ICR mice were used 7 weeks old for the toxicity test. […]

[7] = Single intravenous dose acute toxicity; type: in vivo, mice; details: ICR, mouse, in vivo, single intravenous administration
Procedure: (§2) All in vivo mouse toxicity studies were conducted according to Testing Guidelines for Safety Evaluation of Drugs[32] and the Organisation for Economic Co-operation and Development (OECD) Guideline[33]. Male and female ICR mice were used 7 weeks old for the toxicity test. […] The single doses were 1, 2.5, and 5 mg per kg body weight.

ICR mice = assay: Single intravenous dose acute toxicity; type: in vivo
Procedure: as §2

horse blood cells = type: cell-based; details: 90% hemolysis against horse blood cells; ± percentage standard deviation
Procedure: as §1

[8] = test system: ergosterol-containing membranes; assay: Preliminary SPR experiments; type: binding; details: ergosterol- vs cholesterol-containing liposomes, unpublished data

`CC(=O)NC1C(OC2C(C)OC(OC3C=CC=CC=CC=CC=CC=CC=CC(C)C(O)C(C)C(C)OC(=O)CC(O)CC(O)CC(O)CCC(O)C(O)CC4(O)CC(O)C(C(=O)O)C(C3)O4)C(O)C2N)OC(CO)C(O)C1O` (stereo not drawn) [NPP B1, Nystatin-like Pseudonocardia polyene B1] showed an MIC (C. albicans SL38) of 2 µg/mL (≈ 1.77 µM), an MIC (C. albicans SL28) of 4 µg/mL (≈ 3.55 µM) and an MIC [1] of 2 µg/mL (≈ 1.77 µM). For the same compound, the MIC (C. albicans SC5314) was 4 µg/mL (≈ 3.55 µM), the MIC [2] was 1 µg/mL (≈ 0.887 µM) and the MIC [3] was 2 µg/mL (≈ 1.77 µM). The Clearance class [4] was “Moderate”, the k [4] was 0.019 and the half-life at 1 µM ([4]; pH 7.4) was 0.608 h. For the same compound, the microsomal CLint at 1 µM ([4]; pH 7.4) was 19000 µL/min/mg, the remaining at 80 min, 1 µM ([4]; pH 7.4, 1 µM, 80-min incubation) was 28.2% and the AUC(0-inf) (in vivo) was 13600 ng·h/mL. The AUC(0-t) (in vivo) was 10300 ng·h/mL, the MRT inf (in vivo) was 15.6 h and the Vd (in vivo) was 1.1 L/kg. For the same compound, the clearance (in vivo) was 1.67 mL/min/kg, the half-life (in vivo) was 14.5 h and the “detection in the plasma following oral administration” value [5] was “not detected”. The MTD at 7 days [6] was > 1.5 mg/kg, the LD50 at 7 days ([7]; female mice, read-out: median lethal dose (LD50)) was 2.95 mg/kg and the LD50 at 7 days ([7]; male mice, read-out: median lethal dose (LD50)) was 2.95 mg/kg. The LD50 at 7 days ([7]; both sexes, mice, read-out: LD50, median lethal dose (dose causing 50% mortality)) was 2.95 mg/kg, the “Deaths on day after start of treatment” value (ICR mice; female, single iv 1mg/kg, day 0) was 0 and the “Deaths on day after start of treatment” value (ICR mice; female, single iv 1mg/kg, day 1) was 0. The “Deaths on day after start of treatment” value (ICR mice; female, single iv 1mg/kg, day 2) was 0, the “Deaths on day after start of treatment” value (ICR mice; female, single iv 1mg/kg, day 3) was 0 and the “Deaths on day after start of treatment” value (ICR mice; female, single iv 1mg/kg, day 4) was 0. For the same compound, the “Deaths on day after start of treatment” value (ICR mice; female, single iv 1mg/kg, day 5) was 0, the “Deaths on day after start of treatment” value (ICR mice; female, single iv 1mg/kg, day 6) was 0 and the “Deaths on day after start of treatment” value (ICR mice; female, single iv 1mg/kg, day 7) was 0. For the same compound, the “Deaths on day after start of treatment” value (ICR mice; female, single iv 2.5mg/kg, day 0) was 1, the “Deaths on day after start of treatment” value (ICR mice; female, single iv 2.5mg/kg, day 1) was 0 and the “Deaths on day after start of treatment” value (ICR mice; female, single iv 2.5mg/kg, day 2) was 1. The “Deaths on day after start of treatment” value (ICR mice; female, single iv 2.5mg/kg, day 3) was 0, the “Deaths on day after start of treatment” value (ICR mice; female, single iv 2.5mg/kg, day 4) was 0 and the “Deaths on day after start of treatment” value (ICR mice; female, single iv 2.5mg/kg, day 5) was 0. For the same compound, the “Deaths on day after start of treatment” value (ICR mice; female, single iv 2.5mg/kg, day 6) was 0, the “Deaths on day after start of treatment” value (ICR mice; female, single iv 2.5mg/kg, day 7) was 0 and the “Deaths on day after start of treatment” value (ICR mice; female, single iv 5mg/kg, day 0) was 3. For the same compound, the “Deaths on day after start of treatment” value (ICR mice; female, single iv 5mg/kg, day 1) was 2, the “Deaths on day after start of treatment” value (ICR mice; female, single iv 5mg/kg, day 2) was 0 and the “Deaths on day after start of treatment” value (ICR mice; female, single iv 5mg/kg, day 3) was 0. For the same compound, the “Deaths on day after start of treatment” value (ICR mice; female, single iv 5mg/kg, day 4) was 0, the “Deaths on day after start of treatment” value (ICR mice; female, single iv 5mg/kg, day 5) was 0 and the “Deaths on day after start of treatment” value (ICR mice; female, single iv 5mg/kg, day 6) was 0. The “Deaths on day after start of treatment” value (ICR mice; female, single iv 5mg/kg, day 7) was 0, the “Deaths on day after start of treatment” value (ICR mice; male, single iv 1mg/kg, day 0) was 0 and the “Deaths on day after start of treatment” value (ICR mice; male, single iv 1mg/kg, day 1) was 0. The “Deaths on day after start of treatment” value (ICR mice; male, single iv 1mg/kg, day 2) was 0, the “Deaths on day after start of treatment” value (ICR mice; male, single iv 1mg/kg, day 3) was 0 and the “Deaths on day after start of treatment” value (ICR mice; male, single iv 1mg/kg, day 4) was 0. The “Deaths on day after start of treatment” value (ICR mice; male, single iv 1mg/kg, day 5) was 0, the “Deaths on day after start of treatment” value (ICR mice; male, single iv 1mg/kg, day 6) was 0 and the “Deaths on day after start of treatment” value (ICR mice; male, single iv 1mg/kg, day 7) was 0. The “Deaths on day after start of treatment” value (ICR mice; male, single iv 2.5mg/kg, day 0) was 1, the “Deaths on day after start of treatment” value (ICR mice; male, single iv 2.5mg/kg, day 1) was 0 and the “Deaths on day after start of treatment” value (ICR mice; male, single iv 2.5mg/kg, day 2) was 1. For the same compound, the “Deaths on day after start of treatment” value (ICR mice; male, single iv 2.5mg/kg, day 3) was 0, the “Deaths on day after start of treatment” value (ICR mice; male, single iv 2.5mg/kg, day 4) was 0 and the “Deaths on day after start of treatment” value (ICR mice; male, single iv 2.5mg/kg, day 5) was 0. For the same compound, the “Deaths on day after start of treatment” value (ICR mice; male, single iv 2.5mg/kg, day 6) was 0, the “Deaths on day after start of treatment” value (ICR mice; male, single iv 2.5mg/kg, day 7) was 0 and the “Deaths on day after start of treatment” value (ICR mice; male, single iv 5mg/kg, day 0) was 4. The “Deaths on day after start of treatment” value (ICR mice; male, single iv 5mg/kg, day 1) was 0, the “Deaths on day after start of treatment” value (ICR mice; male, single iv 5mg/kg, day 2) was 1 and the “Deaths on day after start of treatment” value (ICR mice; male, single iv 5mg/kg, day 3) was 0. The “Deaths on day after start of treatment” value (ICR mice; male, single iv 5mg/kg, day 4) was 0, the “Deaths on day after start of treatment” value (ICR mice; male, single iv 5mg/kg, day 5) was 0 and the “Deaths on day after start of treatment” value (ICR mice; male, single iv 5mg/kg, day 6) was 0. For the same compound, the “Deaths on day after start of treatment” value (ICR mice; male, single iv 5mg/kg, day 7) was 0, the “Hemolytic activity (MHC, minimum hemolytic concentration)” value (horse blood cells) was 13.60 ± 0.19 µg/mL and the binding preference [8] was “binds preferentially to ergosterol-containing liposomes”.
